# Results as given in patent US6855312B1, “Hair care composition” (The Boots Company PLC, priority 1999, dated 2005).
# System: Linoleic acid (model skin and hair lipid)
# Experiment: UVA/B-induced lipid peroxidation of linoleic acid, lipid hydroperoxides by colorimetric test (In Vitro Tests)
# Format: biochemical
# Conditions: first series; compared to irradiated vehicle alone; broad spectrum UVA/B
# Procedure: Linoleic acid (model skin and hair lipid) was incubated in the presence of various antioxidants and antoxidant combinations and was exposed to broad spectrum UVA/B to induce oxidation of the lipid. Following extraction of the lipid into methanol, the amount of lipid hydroperoxides (free radical generated damage) formed were measured with a specific colorimetric biochemical test. The degree of inhibition afforded by the antioxidants was thus measured and compared to irradiated vehicle controls.
# The percentage inhibition of free radical mediated lipid peroxidation when compared to the vehicle alone are given below.
# In a second series of experiments using antoxidants collected in a later season gave the following results.
smiles,measurement,value
O=C1O[C@H]([C@@H](O)CO)C([O-])=C1OP(=O)([O-])[O-].[Na+].[Na+].[Na+] [Sodium ascorbyl phosphate],% inhibition of free radical mediated lipid peroxidation (observed),21%
